In assay [1] the target is T1, PCSK9 (Homo sapiens, UniProt Q8NBP7).
T1 construct: Biotinylated PCSK9 was obtained commercially; purchased
Nature of the assay: PCSK9 Alexa FRET Ultra TR-FRET assay (displacement of AlexaFluor647 tagged cyclic peptide). As to conditions: 0.5 nM biotinylated PCSK9, 960 nM AF cyclic peptide, Ki calculated from IC50 and KD of AF peptide. The assay is classed as binding. On the procedure:
(§1) The following is a description of the assays used to determine activity of compounds of the invention, and any comparator compounds reported, toward PCSK9 antagonism. Biotinylated PCSK9 was obtained commercially.
A solution containing 1 nM biotinylated PCSK9+2.5 nM Lance Streptavidin Europium (Strep-Eu) is made in 50 mM HEPES pH 7.4, 0.15 M NaCl, 5 mM CaCl2, 0.01% BSA, and 0.01% Surfactant P20. A separate solution containing 1920 nM of the AlexaFluor tagged cyclic peptide is made in the same buffer system. An Echo is used to transfer 0.015 ul of compound plus 0.735 ul of DMSO to each well of an assay plate followed by the addition of 15 ul of PCSK9+Stept-Eu and 15 ul of AF peptide. The final assay volume is 30.750 ul containing 0.5 nM PCSK9, 1.25 nM Strep-Eu, and 960 nM AF cyclic peptide. The reaction is incubated at room temperature for at least two hours prior to fluorescence measurements using an Envision Multilabel Reader. IC50 values are determined by fitting data to a sigmoidal dose-response curve using nonlinear regression. Ki is then calculated from the IC50 and the KD of AF cyclic peptide. Counts (B-counts) of the europium-labeled PCSK9 are followed to observe if compounds are adversely affecting PCSK9. A fall off of the B-counts is likely indicates a false positive of inhibition. Data from this procedure is reported as “Ki Ultra=‘numerical value’ (data reported is nanomolar)”

Assay [2] concerns the target T1, PCSK9. Nature of the assay: PCSK9 Alexa FRET Plus TR-FRET assay (displacement of AlexaFluor647 tagged cyclic peptide Reagent B). The assay is classed as binding. As to conditions: 0.5 nM biotinylated PCSK9, 960 nM AF cyclic peptide Reagent B, Ki calculated from IC50 and KD of AF peptide. On the procedure: as §1
A solution containing 1 nM biotinylated PCSK9+2.5 nM Lance Streptavidin Europium (Strep-Eu) is made in 50 mM HEPES pH 7.4, 0.15 M NaCl, 5 mM CaCl2, 0.01% BSA, and 0.01% Surfactant P20. A separate solution containing 1920 nM of the AlexaFluor tagged cyclic peptide is made in the same buffer system. An Echo is used to transfer 0.075 ul of compound plus 0.675 ul of DMSO to each well of an assay plate followed by the addition of 15 ul of PCSK9+Stept-Eu and 15 ul of AF peptide. The final assay volume is 30.750 ul containing 0.5 nM PCSK9, 1.25 nM Strep-Eu, and 960 nM AF cyclic peptide. The reaction is incubated at room temperature for at least two hours prior to fluorescence measurements using an Envision Multilabel Reader. IC50 values are determined by fitting data to a sigmoidal dose-response curve using nonlinear regression. Ki is then calculated from the IC50 and the KD of AF cyclic peptide. Counts (B-counts) of the europium-labeled PCSK9 are followed to observe if compounds are adversely affecting PCSK9. A fall off of the B-counts is likely indicates a false positive of inhibition. Data from this procedure is reported as “P=‘numerical value’ (nanomolar)”
Activity data obtained by one or both of the above-described procedures is reported for selected example compounds of the invention in the following format: Example No.: A (standard TR Fret)=‘numerical value’; P (Alexa Fret plus standard TR Fret)=‘numerical value’/, note that all values reported are nanomolar.

These results are taken from patent publication US12209145B2, “PCSK9 antagonist compounds” (Merck Sharp & Dohme LLC, priority 2018, dated 2025).

T1 sequence (Q8NBP7 153-692): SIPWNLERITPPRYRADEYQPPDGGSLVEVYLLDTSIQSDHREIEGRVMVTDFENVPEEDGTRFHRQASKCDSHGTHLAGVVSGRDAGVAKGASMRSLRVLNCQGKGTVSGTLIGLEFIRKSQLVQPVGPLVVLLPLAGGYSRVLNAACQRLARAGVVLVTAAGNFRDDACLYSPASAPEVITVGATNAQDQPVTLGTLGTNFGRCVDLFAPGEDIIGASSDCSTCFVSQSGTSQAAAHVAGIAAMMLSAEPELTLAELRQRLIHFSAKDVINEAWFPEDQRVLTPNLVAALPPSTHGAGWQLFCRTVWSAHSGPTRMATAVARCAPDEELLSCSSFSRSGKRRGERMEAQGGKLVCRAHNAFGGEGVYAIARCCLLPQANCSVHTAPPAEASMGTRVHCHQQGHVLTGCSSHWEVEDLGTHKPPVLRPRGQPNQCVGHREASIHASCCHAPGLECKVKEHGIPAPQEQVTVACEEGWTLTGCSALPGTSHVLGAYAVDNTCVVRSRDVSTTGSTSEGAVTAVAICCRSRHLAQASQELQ

The Ki is the equilibrium dissociation constant of an inhibitor or competing ligand from its target. As for `COc1ccc(C[C@@H]2NC(=O)[C@H]([C@@H](C)O)NC(=O)[C@@H]3[C@@H]4CCN3C(=O)[C@@H]3Cc5cn(c6ccc(F)cc56)CCCCCCN(Cc5ccc(cc5)CCNC(=O)[C@]5(C)CCCN5C2=O)C(=O)CCC(=O)N[C@@H](CCCC[N+](C)(C)C)C(=O)N[C@H](CNC(=O)CCOCCOCC[N+](C)(C)C)C(=O)N[C@@H](Cc2cccc(c2)CNC(=O)CO4)C(=O)N3)cc1` (stereo in doubt) [Ex-24], the inhibitory constant (Ki) in assay [1] (Ki Ultra) was 0.00767 nM; in assay [2] (Ki Plus), 0.00812 nM. Regarding `COc1ccc(C[C@@H]2NC(=O)[C@H]([C@@H](C)O)NC(=O)[C@@H]3[C@@H]4CCN3C(=O)[C@@H]3Cc5cn(c6ccc(F)cc56)CCCCCCN(Cc5ccc(cc5)CCNC(=O)[C@]5(C)CCCN5C2=O)C(=O)CCC(=O)N[C@@H](C)C(=O)N[C@H](CN)C(=O)N[C@@H](Cc2cccc(c2)CNC(=O)CO4)C(=O)N3)cc1` [Ex-01], the results for the Ki in assay [1] (Ki Ultra) and in assay [2] (Ki Plus) were 0.0046 nM and less than 0.00558 nM, respectively. As for `COc1ccc(C[C@@H]2NC(=O)[C@H]([C@@H](C)O)NC(=O)[C@@H]3[C@@H]4CCN3C(=O)[C@@H]3Cc5cn(c6ccc(F)cc56)C/C=C\CCCN(Cc5ccc(cc5)CCNC(=O)[C@]5(C)CCCN5C2=O)C(=O)CCC(=O)N[C@@H](CNC(=O)CCOCCOCC[N+](C)(C)C)C(=O)N[C@H](C)C(=O)N[C@@H](Cc2cccc(c2)CNC(=O)CO4)C(=O)N3)cc1` [Ex-04], the Ki in assay [1] (read-out: Ki Ultra) is 0.00471 nM; in assay [2] (read-out: Ki Plus), no more than 0.00558 nM. For `COc1ccc(C[C@@H]2NC(=O)[C@H]([C@@H](C)O)NC(=O)[C@@H]3[C@@H]4CCN3C(=O)[C@@H]3Cc5cn(c6ccc(F)cc56)C/C=C/CCCN(Cc5ccc(cc5)CCNC(=O)[C@]5(C)CCCN5C2=O)C(=O)CCC(=O)N[C@@H](CNC(=O)CCOCCOCC[N+](C)(C)C)C(=O)N[C@H](C)C(=O)N[C@@H](Cc2cccc(c2)CNC(=O)CO4)C(=O)N3)cc1` [Ex-05], the inhibition constant Ki in assay [1] (read-out: Ki Ultra) was 0.033 nM; in assay [2] (read-out: Ki Plus), 0.00962 nM.

For `COc1ccc(C[C@@H]2NC(=O)[C@H]([C@@H](C)O)NC(=O)[C@@H]3[C@@H]4CCN3C(=O)[C@@H]3Cc5cn(c6ccc(F)cc56)C/C=C/CCCN(Cc5ccc(cc5)CCNC(=O)[C@]5(C)CCCN5C2=O)C(=O)CCC(=O)N[C@@H](C)C(=O)N[C@H](CNC(=O)CCCCC[N+](C)(C)C)C(=O)N[C@@H](Cc2cccc(c2)CNC(=O)CO4)C(=O)N3)cc1` [Ex-06], the inhibitory constant (Ki) in assay [1] (read-out: Ki Ultra) was 0.00342 nM; in assay [2] (read-out: Ki Plus), 0.00568 nM. For the compound `COc1ccc(C[C@@H]2NC(=O)[C@H]([C@@H](C)O)NC(=O)[C@@H]3[C@@H]4CCN3C(=O)[C@@H]3Cc5cn(c6ccc(F)cc56)C/C=C/CCCN(Cc5ccc(cc5)CCNC(=O)[C@]5(C)CCCN5C2=O)C(=O)CCC(=O)N[C@H]2CN(C(=O)CCOCCOCC[N+](C)(C)C)CCCCC(=O)NC[C@@H](NC2=O)C(=O)N[C@@H](Cc2cccc(c2)CNC(=O)CO4)C(=O)N3)cc1` [Ex-07], the inhibition constant Ki in assay [1] (read-out: Ki Ultra) was 0.0675 nM; in assay [2] (read-out: Ki Plus) it was 0.0591 nM. For the compound `COc1ccc(C[C@@H]2NC(=O)[C@H]([C@@H](C)O)NC(=O)[C@@H]3[C@@H]4CCN3C(=O)[C@@H]3Cc5cn(c6ccc(F)cc56)Cc5cn(nn5)Cc5cc(ccc5CNC(=O)CCC(=O)N[C@@H](C)C(=O)N[C@H](CNC(=O)CCOCCOCC[N+](C)(C)C)C(=O)N[C@@H](Cc5cccc(c5)CNC(=O)CO4)C(=O)N3)CCNC(=O)[C@]3(C)CCCN3C2=O)cc1` [Ex-08], the inhibition constant Ki in assay [1] (read-out: Ki Ultra) is 0.0683 nM; in assay [2] (read-out: Ki Plus) it was 0.0157 nM. Turning to `COc1ccc(C[C@@H]2NC(=O)[C@H]([C@@H](C)O)NC(=O)[C@@H]3[C@@H]4CCN3C(=O)[C@@H]3Cc5cn(c6ccc(F)cc56)Cc5cn(nn5)Cc5cc(ccc5CNC(=O)CCC(=O)N[C@@H](C)C(=O)N[C@H](CNC(=O)CCOCCOCC[N+](C)(C)C)C(=O)N[C@@H](Cc5cccc(c5)CNC(=O)CO4)C(=O)N3)CCNC(=O)[C@]3(C)CCCN3C2=O)cc1` [Ex-09], the figures for the Ki in assay [1] (Ki Ultra) and in assay [2] (Ki Plus) were 0.247 nM and 0.0919 nM, respectively.

On to `COc1ccc(C[C@@H]2NC(=O)[C@H]([C@@H](C)O)NC(=O)[C@@H]3[C@@H]4CCN3C(=O)[C@@H]3Cc5cn(c6ccc(F)cc56)Cc5cn(nn5)C[C@@H](NC(=O)CCC(=O)N[C@@H](C)C(=O)N[C@H](CNC(=O)CCOCCOCC[N+](C)(C)C)C(=O)N[C@@H](Cc5cccc(c5)CNC(=O)CO4)C(=O)N3)c3ccc(cc3)CCNC(=O)[C@]3(C)CCCN3C2=O)cc1` [Ex-10], for which the inhibition constant (Ki) in assay [1] (read-out: Ki Ultra) is 0.0249 nM; in assay [2] (read-out: Ki Plus) it was 0.00574 nM. As to `COc1ccc(C[C@@H]2NC(=O)[C@H]([C@@H](C)O)NC(=O)[C@@H]3[C@@H]4CCN3C(=O)[C@@H]3Cc5cn(c6ccc(F)cc56)Cc5cn(nn5)C[C@@H](NC(=O)CCC(=O)N[C@@H](CNC(=O)CCOCCOCC[N+](C)(C)C)C(=O)N[C@H](C)C(=O)N[C@@H](Cc5cccc(c5)CNC(=O)CO4)C(=O)N3)c3ccc(cc3)CCNC(=O)[C@]3(C)CCCN3C2=O)cc1` [Ex-11], the results for the Ki in assay [1] (read-out: Ki Ultra) and in assay [2] (read-out: Ki Plus) were 0.207 nM and 0.0433 nM, respectively. Consider `COc1ccc(C[C@@H]2NC(=O)[C@H]([C@@H](C)O)NC(=O)[C@@H]3[C@@H]4CCN3C(=O)[C@@H]3Cc5cn(c6ccc(F)cc56)Cc5cn(nn5)CC(NC(=O)CCCCCC(=O)N[C@H](CNC(=O)CCOCCOCC[N+](C)(C)C)C(=O)N[C@@H](Cc5cccc(c5)CNC(=O)CO4)C(=O)N3)c3ccc(cc3)CCNC(=O)[C@]3(C)CCCN3C2=O)cc1` [Ex-12], for which the Ki in assay [1] (read-out: Ki Ultra) was 0.0225 nM; in assay [2] (read-out: Ki Plus), 0.0145 nM.

With `COc1ccc(C[C@@H]2NC(=O)[C@H]([C@@H](C)O)NC(=O)[C@@H]3[C@@H]4CCN3C(=O)[C@@H]3Cc5cn(c6ccc(F)cc56)Cc5cn(nn5)CCN(Cc5ccc(cc5)CCNC(=O)[C@]5(C)CCCN5C2=O)C(=O)CCC(=O)N[C@@H](CNC(=O)CCOCCOCC[N+](C)(C)C)C(=O)N[C@H](C)C(=O)N[C@@H](Cc2cccc(c2)CNC(=O)CO4)C(=O)N3)cc1` [Ex-13], the Ki in assay [1] (read-out: Ki Ultra) was 0.477 nM; in assay [2] (read-out: Ki Plus), 0.145 nM. The matching figures for `COc1ccc(C[C@@H]2NC(=O)[C@H]([C@@H](C)O)NC(=O)[C@@H]3[C@@H]4CCN3C(=O)[C@@H]3Cc5cn(c6ccc(F)cc56)Cc5cn(nn5)CCN(Cc5ccc(cc5)CCNC(=O)[C@]5(C)CCCN5C2=O)C(=O)CCC(=O)N[C@@H](C)C(=O)N[C@H](CNC(=O)CCOCCOCC[N+](C)(C)C)C(=O)N[C@@H](Cc2cccc(c2)CNC(=O)CO4)C(=O)N3)cc1` [Ex-14]: 0.021 nM and 0.016 nM.

Consider `COc1ccc(C[C@@H]2NC(=O)[C@H]([C@@H](C)O)NC(=O)[C@@H]3[C@@H]4CCN3C(=O)[C@@H]3Cc5cn(c6ccc(F)cc56)Cc5cn(nn5)CCN(Cc5ccc(cc5)CCNC(=O)[C@]5(C)CCCN5C2=O)C(=O)CCCC(=O)N[C@@H](CNC(=O)CCOCCOCC[N+](C)(C)C)C(=O)N[C@H](C)C(=O)N[C@@H](Cc2cccc(c2)CNC(=O)CO4)C(=O)N3)cc1` [Ex-15], for which the Ki is 0.26 nM in assay [1] (read-out: Ki Ultra) and 0.103 nM in assay [2] (read-out: Ki Plus). For the compound `COc1ccc(C[C@@H]2NC(=O)[C@H]([C@@H](C)O)NC(=O)[C@@H]3[C@@H]4CCN3C(=O)[C@@H]3Cc5cn(c6ccc(F)cc56)CCCCN(Cc5ccc(cc5)CCNC(=O)[C@]5(C)CCCN5C2=O)C(=O)CCC(=O)N[C@@H](C)C(=O)N[C@H](CNC(=O)CCOCCOCC[N+](C)(C)C)C(=O)N[C@@H](Cc2cccc(c2)CNC(=O)CO4)C(=O)N3)cc1` [Ex-28], in assay [2] (read-out: Ki Plus), the Ki is no more than 0.00558 nM.

For `COc1ccc(C[C@@H]2NC(=O)[C@H]([C@@H](C)O)NC(=O)[C@@H]3[C@@H]4CCN3C(=O)[C@@H]3Cc5cn(c6ccc(F)cc56)CCCCCCN(Cc5ccc(cc5)CCNC(=O)[C@]5(C)CCCN5C2=O)C(=O)CCC(=O)N[C@@H](C)C(=O)N[C@H](CNC(=O)CCOCC[N+](C)(C)C)C(=O)N[C@@H](Cc2cccc(c2)CNC(=O)CO4)C(=O)N3)cc1` [Ex-31], the inhibition constant (Ki) in assay [2] (Ki Plus) was less than 0.00558 nM.
